In ChEMBL document CHEMBL1131152, “In vitro and in vivo activities of oligodeoxynucleotide-based thrombin inhibitors containing neutral formacetal linkages” (J Med Chem, 1998):

Each compound was assayed against Prothrombin (Homo sapiens) (UniProt P00734) (assay: Relative prothrombin time was determined as the activity of the test ODN (oligodeoxynucleotide) relative to that of GS-522).

SMILES	Relative PT
Cc1cn([C@H]2C[C@H](OCOC[C@H]3O[C@@H](n4cc(C)c(=O)[nH]c4=O)C[C@@H]3OP(=O)(O)OC[C@H]3O[C@@H](n4cnc5c(=O)nc(N)[nH]c54)C[C@@H]3OP(=O)(O)OC[C@H]3O[C@@H](n4cnc5c(=O)[nH]c(=N)[nH]c54)C[C@@H]3OP(=O)(O)OC[C@H]3O[C@@H](n4cc(C)c(=O)[nH]c4=O)C[C@@H]3OP(=O)(O)OC[C@H]3O[C@@H](n4cnc5c(=O)[nH]c(=N)[nH]c54)C[C@@H]3OP(=O)(O)OC[C@H]3O[C@@H](n4cc(C)c(=O)[nH]c4=O)C[C@@H]3OP(=O)(O)OC[C@H]3O[C@@H](n4cnc5c(=O)nc(N)[nH]c54)C[C@@H]3OP(=O)(O)OC[C@H]3O[C@@H](n4cnc5c(=O)[nH]c(=N)[nH]c54)C[C@@H]3OP(=O)(O)OC[C@H]3O[C@@H](n4cc(C)c(=O)[nH]c4=O)C[C@@H]3OCOC[C@H]3O[C@@H](n4cc(C)c(=O)[nH]c4=O)C[C@@H]3OP(=O)(O)OC[C@H]3O[C@@H](n4cnc5c(=O)[nH]c(=N)[nH]c54)C[C@@H]3OP(=O)(O)OC[C@H]3O[C@@H](n4cnc5c(=O)nc(N)[nH]c54)C[C@@H]3O)[C@@H](COP(=O)(O)O[C@H]3C[C@H](n4cnc5c(=O)[nH]c(=N)[nH]c54)O[C@@H]3COP(=O)(O)O[C@H]3C[C@H](n4cnc5c(=O)nc(N)[nH]c54)O[C@@H]3COP(=O)(O)O)O2)c(=O)[nH]c1=O	1.1
Cc1cn([C@H]2C[C@H](OCOC[C@H]3O[C@@H](n4cc(C)c(=O)[nH]c4=O)C[C@@H]3OP(=O)(O)OC[C@H]3O[C@@H](n4cnc5c(=O)[nH]c(=N)[nH]c54)C[C@@H]3OP(=O)(O)OC[C@H]3O[C@@H](n4cnc5c(=O)nc(N)[nH]c54)C[C@@H]3O)[C@@H](COP(=O)(O)O[C@H]3C[C@H](n4cnc5c(=O)[nH]c(=N)[nH]c54)O[C@@H]3COP(=O)(O)O[C@H]3C[C@H](n4cnc5c(=O)nc(N)[nH]c54)O[C@@H]3COP(=O)(O)O[C@H]3C[C@H](n4cc(C)c(=O)[nH]c4=O)O[C@@H]3COP(=O)(O)O[C@H]3C[C@H](n4cnc5c(=O)[nH]c(=N)[nH]c54)O[C@@H]3COP(=O)(O)O[C@H]3C[C@H](n4cc(C)c(=O)[nH]c4=O)O[C@@H]3COP(=O)(O)O[C@H]3C[C@H](n4cnc5c(=O)[nH]c(=N)[nH]c54)O[C@@H]3COP(=O)(O)O[C@H]3C[C@H](n4cnc5c(=O)nc(N)[nH]c54)O[C@@H]3COP(=O)(O)O[C@H]3C[C@H](n4cc(C)c(=O)[nH]c4=O)O[C@@H]3COP(=O)(O)O[C@H]3C[C@H](n4cc(C)c(=O)[nH]c4=O)O[C@@H]3COP(=O)(O)O[C@H]3C[C@H](n4cnc5c(=O)nc(N)[nH]c54)O[C@@H]3COP(=O)(O)O[C@H]3C[C@H](n4cnc5c(=O)nc(N)[nH]c54)O[C@@H]3COP(=O)(O)O)O2)c(=O)[nH]c1=O	1.1
Cc1cn([C@H]2C[C@H](OP(=O)(O)OC[C@H]3O[C@@H](n4cnc5c(=O)nc(N)[nH]c54)C[C@@H]3OP(=O)(O)OC[C@H]3O[C@@H](n4cnc5c(=O)[nH]c(=N)[nH]c54)C[C@@H]3OP(=O)(O)OC[C@H]3O[C@@H](n4cc(C)c(=O)[nH]c4=O)C[C@@H]3OP(=O)(O)OC[C@H]3O[C@@H](n4cnc5c(=O)nc(N)[nH]c54)C[C@@H]3OP(=O)(O)OC[C@H]3O[C@@H](n4cc(C)c(=O)[nH]c4=O)C[C@@H]3OP(=O)(O)OC[C@H]3O[C@@H](n4cnc5c(=O)nc(N)[nH]c54)C[C@@H]3OP(=O)(O)OC[C@H]3O[C@@H](n4cnc5c(=O)[nH]c(=N)[nH]c54)C[C@@H]3OP(=O)(O)OC[C@H]3O[C@@H](n4cc(C)c(=O)[nH]c4=O)C[C@@H]3OP(=O)(O)OC[C@H]3O[C@@H](n4cc(C)c(=O)[nH]c4=O)C[C@@H]3OP(=O)(O)OC[C@H]3O[C@@H](n4cnc5c(=O)[nH]c(=N)[nH]c54)C[C@@H]3OP(=O)(O)OC[C@H]3O[C@@H](n4cnc5c(=O)nc(N)[nH]c54)C[C@@H]3O)[C@@H](COP(=O)(O)O[C@H]3C[C@H](n4cc(C)c(=O)[nH]c4=O)O[C@@H]3COP(=O)(O)O[C@H]3C[C@H](n4cnc5c(=O)[nH]c(=N)[nH]c54)O[C@@H]3COCO[C@H]3C[C@H](n4cnc5c(=O)nc(N)[nH]c54)O[C@@H]3COP(=O)(O)O)O2)c(=O)[nH]c1=O	0.9
